# Assay results reported in paper PMC7168933, “Design, Synthesis and Biochemical Evaluation of Novel Ethanoanthracenes and Related Compounds to Target Burkitt’s Lymphoma” (Pharmaceuticals, 2020).
# Read-outs that look alike come from different tables or passages of the source.
# Assays:
# [1] = tested on: MUTU-1 Burkitt lymphoma cell line (EBV+); experiment: cells; conditions: Mutu-1, 24 h; for IC50: read-out: IC50 MUTU-I 24 h
# [2] = tested on: DG-75 Burkitt lymphoma cell line (EBV−, chemoresistant); experiment: cells; conditions: Homo sapiens, DG-75, 48 h
# [3] = read-out: MUTU-1 Cell Viability % 1 μM, 1 μM, 24 h
# [4] = read-out: MUTU-1 Cell Viability % 10 μM, 10 μM, 24 h
# [5] = read-out: DG-75 Cell Viability % 1 μM, 1 μM, 48 h
# [6] = read-out: DG-75 Cell Viability % 10 μM, 10 μM, 48 h
SMILES,"viability at 1 µM [1, 3] [%]","viability at 10 µM [1, 4] [%]","viability at 1 µM [2, 5] [%]","viability at 10 µM [2, 6] [%]",melting point [°C],IC50 [1] [nM],"viability at 0.5 µM ([2]; read-out: viable cells in DG-75 at 0.5 µM, 0.5 µM, 48 h) [%]",viability at 1 µM ([1]; read-out: MUTU-1 Cell Viability % 1 μM) [%],viability at 10 µM ([1]; read-out: MUTU-1 Cell Viability % 10 μM) [%],viability at 1 µM ([2]; read-out: DG-75 Cell Viability % 1 μM) [%],viability at 10 µM ([2]; read-out: DG-75 Cell Viability % 10 μM) [%]
O=CC12c3ccccc3C(c3ccccc31)C1C(=O)N(c3ccccc3)C(=O)C12 (stereo not drawn) [Compound 21f],102,77.7,102,72.4,,,,,,,
"COc1cc(CN2C(=O)C3C4c5ccccc5C(/C=C(\C)[N+](=O)[O-])(c5ccccc54)C3C2=O)cc(OC)c1OC (stereo not drawn) [Compound 17l, (E)-9-(2-Nitroprop-1-en-1-yl)-13-(3,4,5-trimethoxybenzyl)-9,10-dihydro-9,10-[3,4]epipyrroloanthracene-12,14-dione]",66.8,77.3,81.9,82.1,227 to 229,,,,,,
"O=C1C2C3c4ccccc4C(/C=C/[N+](=O)[O-])(c4ccccc43)C2C(=O)N1c1ccccc1O (stereo not drawn) [Compound 16l, (E)-13-(2-Hydroxyphenyl)-9-(2-nitrovinyl)-9,10-dihydro-9,10-[3,4]epipyrroloanthracene-12,14-dione]",2.3,0.61,59.2,0,203 to 206,,,,,,
"C/C(=C\C12c3ccccc3C(c3ccccc31)C1C(=O)N(Cc3ccccc3)C(=O)C12)[N+](=O)[O-] (stereo not drawn) [Compound 17j, (E)-13-Benzyl-9-(2-nitroprop-1-en-1-yl)-9,10-dihydro-9,10-[3,4]epipyrroloanthracene-12,14-dione]",94.6,85.6,104,87.9,232 to 236,,,,,,
"C/C(=C\C12c3ccccc3C(c3ccccc31)C1C(=O)N(c3ccccc3)C(=O)C12)[N+](=O)[O-] (stereo not drawn) [Compound 17a, (E)-9-(2-Nitroprop-1-en-1-yl)-13-phenyl-9,10-dihydro-9,10-[3,4]epipyrroloanthracene-12,14-dione]",79.8,68.6,78.3,88.9,263 to 266,,,,,,
"C/C(=C\C12c3ccccc3C(c3ccccc31)C1C(=O)N(c3ccc(Cl)cc3)C(=O)C12)[N+](=O)[O-] (stereo not drawn) [Compound 17c, (E)-13-(4-Chlorophenyl)-9-(2-nitroprop-1-en-1-yl)-9,10-dihydro-9,10-[3,4]epipyrroloanthracene-12,14-dione]",78,77.6,96.6,86.3,298 to 300,,,,,,
"COc1cc(N2C(=O)C3C4c5ccccc5C(/C=C/[N+](=O)[O-])(c5ccccc54)C3C2=O)cc(OC)c1OC (stereo not drawn) [Compound 16f, (E)-9-(2-Nitrovinyl)-13-(3,4,5-trimethoxyphenyl)-9,10-dihydro-9,10-[3,4]epipyrroloanthracene-12,14-dione]",1.8,1.1,25.6,0.46,270 to 272,240,,,,,
"CC/C(=C\C12c3ccccc3C(c3ccccc31)C1C(=O)OC(=O)C12)[N+](=O)[O-] (stereo not drawn) [Compound 13c, (E)-9-(2-Nitrobut-1-en-1-yl)-9,10-dihydro-9,10-[3,4]furanoanthracene-12,14-dione]",64.1,74.1,68,80.7,230 to 233,,,,,,
"CC/C(=C\C12c3ccccc3C(Cl)(c3ccccc31)C1C(=O)N(c3ccccc3)C(=O)C12)[N+](=O)[O-] (stereo not drawn) [Compound 17h, (E)-9-Chloro-10-(2-nitrobut-1-en-1-yl)-13-phenyl-9,10-dihydro-9,10-[3,4]epipyrroloanthracene-12,14-dione]",107,96.3,89.2,90.3,261 to 262,,,,,,
O=CC12c3ccccc3C(c3ccccc31)C1C(=O)NC(=O)C12 (stereo not drawn) [Compound 21e],96.1,95.1,76,71.2,,,,,,,
"O=C1NC(=O)C2C1C1c3ccccc3C2(/C=N/O)c2ccccc21 (stereo not drawn) [Compound 23j, (E)-12,14-Dioxo-9,10-[3,4]epipyrroloanthracene-9(10H)-carbaldehyde oxime]",92.8,87.6,69.1,63.9,272 to 273,,,,,,
"N#C/C=C/C12c3ccccc3C(c3ccccc31)C1C(=O)N(c3ccccc3)C(=O)C12 (stereo not drawn) [Compound 23c, (E)-3-(12,14-Dioxo-13-phenyl-9,10-[3,4]epipyrroloanthracen-9(10H)-yl)acrylonitrile]",90.7,74.1,94.4,89.1,274 to 281,,,,,,
O=C1OC(=O)C2C3c4ccccc4C(c4ccccc43)C12 (stereo not drawn) [Compound 21a],103,93.1,91.4,69.9,,,,,,,
O=C1OC(=O)C2C1C1c3ccccc3C2(O)c2ccccc21 (stereo not drawn) [Compound 21j],103,100,68,93,,,,,,,
O=C1OC(=O)C2C1C1c3ccccc3C2(C(=O)O)c2ccccc21 (stereo not drawn) [Compound 21g],99.2,88.8,93.1,65.4,,,,,,,
O=C1NC(=O)C2C1C1c3ccccc3C2(C(=O)O)c2ccccc21 (stereo not drawn) [Compound 21h],92.6,92,86.3,73.1,,,,,,,
O=CC12c3ccccc3C(c3ccccc31)C1C(=O)OC(=O)C12 (stereo not drawn) [Compound 21d],87.4,88.4,64.8,64.7,,,,,,,
CN(C)CCCN1c2ccccc2Sc2ccc(Cl)cc21 [Compound 5],,,6 to 28,,,,18 to 57,,,,
"CNCCCC12CCC(c3ccccc31)c1ccccc12 [Maprotiline 8, maprotiline, reference compound]",,,,,,,,93.1,73,102,65.1
"COC(=O)C1CC2c3ccccc3C1(/C=C/[N+](=O)[O-])c1ccccc12 (stereo not drawn) [Compound 19c, Methyl (E)-10-(2-nitrovinyl)-9,10-dihydro-9,10-ethanoanthracene-11-carboxylate]",15.6,8.4,92.2,1.4,,540,,,,,
O=C1C2C3c4ccccc4C(C(=O)O)(c4ccccc43)C2C(=O)N1c1ccccc1 (stereo not drawn) [Compound 21i],103,92.5,73.2,67.5,,,,,,,
"N/N=C/C12c3ccccc3C(c3ccccc31)C1C(=O)N(c3ccccc3)C(=O)C12 (stereo not drawn) [Compound 23h, (E)-9-(Hydrazonomethyl)-13-phenyl-9,10-dihydro-9,10-[3,4]epipyrroloanthracene-12,14-dione]",91.1,78,85.8,87.4,,,,,,,
"CCOC(=O)C1CC2c3ccccc3C1(/C=C/[N+](=O)[O-])c1ccccc12 (stereo not drawn) [Compound 19b, Ethyl (E)-10-(2-nitrovinyl)-9,10-dihydro-9,10-ethanoanthracene-11-carboxylate]",48.9,0.69,9.8,13.4,,,,,,,
